Test results published in ChEMBL document CHEMBL1201862, “PubChem BioAssay data set” (2004).
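Where inhibition never reached the appropriate level, the endpoint shown equals the highest concentration tested. Otherwise, values were interpolated linearly from a five-concentration, 48-hour dose response in 96-well plates. The concentration for 50% growth inhibition is given as GI50.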 Calls of active or inactive are those of the source. Cut-off read from the data, not from the text of the source: active = GI50 up to about 1.1 µM and inactive = higher.

Columns and labels:
Assay in all cases: growth of human tumour cells (NCI), 48 h
TK-10 = system: TK-10
DMS-114 = system: DMS-114
HL-60 = system: HL-60
A498 = system: A498
SK-OV-3 = system: SK-OV-3
XF498 = system: XF498
LOX IMVI = system: LOX IMVI
OVCAR-5 = system: OVCAR-5
RXF 631 = system: RXF 631
LXFL 529 = system: LXFL 529
EKVX = system: EKVX
HT-29 = system: HT-29
SF-539 = system: SF-539
SW-620 = system: SW-620
K562 = system: K562
HCT-116 = system: HCT-116
OVCAR-8 = system: OVCAR-8
UACC-257 = system: UACC-257
COLO 205 = system: COLO 205
HCC 2998 = system: HCC 2998
U-251 = system: U-251
CCRF-CEM = system: CCRF-CEM
IGROV-1 = system: IGROV-1
ACHN = system: ACHN
NCI-H226 = system: NCI-H226
SF-295 = system: SF-295
UACC-62 = system: UACC-62
DLD-1 = system: DLD-1
A549 = system: A549
Malme-3M = system: Malme-3M
SNB-75 = system: SNB-75
NCI-H23 = system: NCI-H23
SNB-78 = system: SNB-78
NCI-H460 = system: NCI-H460
SK-MEL-5 = system: SK-MEL-5
HOP-62 = system: HOP-62
OVCAR-3 = system: OVCAR-3
KM-20L2 = system: KM-20L2
UO-31 = system: UO-31
SK-MEL-28 = system: SK-MEL-28
MOLT-4 = system: MOLT-4
RXF 393 = system: RXF 393
RPMI-8226 = system: RPMI-8226
M19-MEL = system: M19-MEL
786-0 = system: 786-0
NCI-H522 = system: NCI-H522
HOP-92 = system: HOP-92
SF-268 = system: SF-268
KM12 = system: KM12
M14 = system: M14
SK-MEL-2 = system: SK-MEL-2
OVCAR-4 = system: OVCAR-4
HCT-15 = system: HCT-15
DMS-273 = system: DMS-273
SNB-19 = system: SNB-19
SR = system: SR
CAKI-1 = system: CAKI-1
SN12C = system: SN12C

In the case of `Cc1cccc(C)c1NC(=O)C(=O)C(C(=O)c1ccccc1-c1ccccc1)C1OC(=O)c2ccccc21` (stereo not drawn), the GI50 (TK-10) is reported as 26.7 µM (inactive), the GI50 (DMS-114) is reported as 13.7 µM (inactive) and the GI50 (HL-60) is reported as 21 µM (inactive). The GI50 (A498) was 18.7 µM (inactive), the GI50 (SK-OV-3) was 27.6 µM (inactive) and the GI50 (XF498) was 15.9 µM (inactive). The GI50 (LOX IMVI) was 19 µM (inactive), the GI50 (OVCAR-5) was 23.2 µM (inactive) and the GI50 (RXF 631) was 31.8 µM (inactive). The GI50 (LXFL 529) was 13.5 µM (inactive), the GI50 (EKVX) was 26.3 µM (inactive) and the GI50 (HT-29) was 37.1 µM (inactive). The GI50 (SF-539) was 14.8 µM (inactive), the GI50 (SW-620) was 26.4 µM (inactive) and the GI50 (K562) was 30.4 µM (inactive). The GI50 (HCT-116) was 14.6 µM (inactive), the GI50 (OVCAR-8) was 29.6 µM (inactive) and the GI50 (UACC-257) was 22.6 µM (inactive). The GI50 (COLO 205) was 19.2 µM (inactive), the GI50 (HCC 2998) was 15.1 µM (inactive) and the GI50 (U-251) was 14.2 µM (inactive). The GI50 (CCRF-CEM) was 19.4 µM (inactive), the GI50 (IGROV-1) was 25.6 µM (inactive) and the GI50 (ACHN) was 43.9 µM (inactive). The GI50 (NCI-H226) was 11.6 µM (inactive), the GI50 (SF-295) was 31.3 µM (inactive) and the GI50 (UACC-62) was 17.4 µM (inactive). The GI50 (DLD-1) was 17.5 µM (inactive), the GI50 (A549) was 25.6 µM (inactive) and the GI50 (Malme-3M) was 12.5 µM (inactive). The GI50 (SNB-75) was 22 µM (inactive), the GI50 (NCI-H23) was 14.3 µM (inactive) and the GI50 (SNB-78) was 24.8 µM (inactive). For the same compound, the GI50 (NCI-H460) was 27.3 µM (inactive), the GI50 (SK-MEL-5) was 17.8 µM (inactive) and the GI50 (HOP-62) was 16.9 µM (inactive). For the same compound, the GI50 (OVCAR-3) was 17.1 µM (inactive), the GI50 (KM-20L2) was 28.8 µM (inactive) and the GI50 (UO-31) was 25.3 µM (inactive). The GI50 (SK-MEL-28) was 22.9 µM (inactive), the GI50 (MOLT-4) was 18.1 µM (inactive) and the GI50 (RXF 393) was 12.8 µM (inactive). For the same compound, the GI50 (RPMI-8226) was 15.8 µM (inactive), the GI50 (M19-MEL) was 15.6 µM (inactive) and the GI50 (786-0) was 18.2 µM (inactive). The GI50 (NCI-H522) was 10.9 µM (inactive), the GI50 (HOP-92) was 16.7 µM (inactive) and the GI50 (SF-268) was 23.7 µM (inactive). The GI50 (KM12) was 20.9 µM (inactive), the GI50 (M14) was 14.7 µM (inactive) and the GI50 (SK-MEL-2) was 16.2 µM (inactive).

`C[C@]1(CO)CCC[C@@]2(C)C1CC[C@H]1CC3C[C@]12CC[C@]3(C)O` (stereo partly drawn) was tested, and the GI50 (TK-10) was 37.5 µM (inactive), the GI50 (DMS-114) was 40.2 µM (inactive) and the GI50 (HL-60) was 5.22 µM (inactive). The GI50 (SK-OV-3) was > 100 µM (inactive), the GI50 (XF498) was 47.1 µM (inactive) and the GI50 (LOX IMVI) was 90.6 µM (inactive). The GI50 (OVCAR-4) was 46.1 µM (inactive), the GI50 (OVCAR-5) was > 100 µM (inactive) and the GI50 (RXF 631) was 42.3 µM (inactive). For the same compound, the GI50 (LXFL 529) was 2.86 µM (inactive), the GI50 (HCT-15) was greater than 100 µM and the GI50 (HT-29) was > 100 µM (inactive). For the same compound, the GI50 (SF-539) was 57.7 µM (inactive), the GI50 (SW-620) was > 100 µM (inactive) and the GI50 (DMS-273) was > 100 µM (inactive). The GI50 (K562) was 11.5 µM (inactive), the GI50 (HCT-116) was 49.8 µM (inactive) and the GI50 (OVCAR-8) was > 100 µM (inactive). For the same compound, the GI50 (UACC-257) was 54.2 µM (inactive), the GI50 (COLO 205) was 36.4 µM (inactive) and the GI50 (HCC 2998) was 58.9 µM (inactive). For the same compound, the GI50 (U-251) was 42.1 µM (inactive), the GI50 (CCRF-CEM) was 0.213 µM (active) and the GI50 (IGROV-1) was > 10 µM (inactive). For the same compound, the GI50 (ACHN) was 74.6 µM (inactive), the GI50 (NCI-H226) was > 100 µM (inactive) and the GI50 (SF-295) was > 100 µM (inactive). The GI50 (UACC-62) was > 100 µM (inactive), the GI50 (DLD-1) was 32.4 µM (inactive) and the GI50 (A549) was 70.5 µM (inactive). For the same compound, the GI50 (SNB-19) was > 100 µM (inactive), the GI50 (Malme-3M) was > 100 µM (inactive) and the GI50 (SNB-75) was 30.8 µM (inactive). The GI50 (NCI-H23) was 83.8 µM (inactive), the GI50 (SNB-78) was 27.1 µM (inactive) and the GI50 (NCI-H460) was 19 µM (inactive). The GI50 (SK-MEL-5) was 17.9 µM (inactive), the GI50 (HOP-62) was 39.8 µM (inactive) and the GI50 (SR) was 83.2 µM (inactive). The GI50 (OVCAR-3) was > 100 µM (inactive), the GI50 (KM-20L2) was > 100 µM (inactive) and the GI50 (UO-31) was > 10 µM (inactive). For the same compound, the GI50 (SK-MEL-28) was > 100 µM (inactive), the GI50 (CAKI-1) was > 100 µM (inactive) and the GI50 (MOLT-4) was 2.77 µM (inactive). For the same compound, the GI50 (RXF 393) was 46.7 µM (inactive), the GI50 (RPMI-8226) was 17.3 µM (inactive) and the GI50 (SN12C) was > 100 µM (inactive). For the same compound, the GI50 (786-0) was > 100 µM (inactive), the GI50 (NCI-H522) was 16.3 µM (inactive) and the GI50 (HOP-92) was > 100 µM (inactive). The GI50 (SF-268) was > 100 µM (inactive), the GI50 (KM12) was > 100 µM (inactive) and the GI50 (M14) was > 100 µM (inactive).

With `O=C1c2ccccc2C(=O)c2c1cc(S(=O)(=O)O)c(O)c2O` [Alizarin Red S] the GI50 (TK-10) was > 100 µM (inactive), the GI50 (DMS-114) was > 100 µM (inactive) and the GI50 (A498) was > 100 µM (inactive). For the same compound, the GI50 (SK-OV-3) was > 100 µM (inactive), the GI50 (XF498) was 16.7 µM (inactive) and the GI50 (LOX IMVI) was > 100 µM (inactive). For the same compound, the GI50 (OVCAR-4) was > 100 µM (inactive), the GI50 (OVCAR-5) was > 100 µM (inactive) and the GI50 (RXF 631) was > 100 µM (inactive). The GI50 (LXFL 529) was > 100 µM (inactive), the GI50 (HCT-15) was greater than 100 µM and the GI50 (EKVX) was > 100 µM (inactive). For the same compound, the GI50 (HT-29) was > 100 µM (inactive), the GI50 (SF-539) was > 100 µM (inactive) and the GI50 (SW-620) was > 100 µM (inactive). For the same compound, the GI50 (K562) was > 100 µM (inactive), the GI50 (HCT-116) was > 100 µM (inactive) and the GI50 (OVCAR-8) was > 100 µM (inactive). For the same compound, the GI50 (UACC-257) was > 100 µM (inactive), the GI50 (COLO 205) was > 100 µM (inactive) and the GI50 (HCC 2998) was > 100 µM (inactive). For the same compound, the GI50 (U-251) was > 100 µM (inactive), the GI50 (CCRF-CEM) was > 100 µM (inactive) and the GI50 (IGROV-1) was > 100 µM (inactive). The GI50 (ACHN) was > 100 µM (inactive), the GI50 (NCI-H226) was > 100 µM (inactive) and the GI50 (SF-295) was > 100 µM (inactive). The GI50 (UACC-62) was > 100 µM (inactive), the GI50 (DLD-1) was > 100 µM (inactive) and the GI50 (A549) was > 100 µM (inactive). For the same compound, the GI50 (SNB-19) was > 10 µM (inactive), the GI50 (SNB-75) was > 100 µM (inactive) and the GI50 (NCI-H23) was > 100 µM (inactive). The GI50 (SNB-78) was > 100 µM (inactive), the GI50 (NCI-H460) was > 100 µM (inactive) and the GI50 (HOP-62) was > 100 µM (inactive). For the same compound, the GI50 (SR) was > 100 µM (inactive), the GI50 (OVCAR-3) was > 100 µM (inactive) and the GI50 (UO-31) was > 100 µM (inactive). The GI50 (SK-MEL-28) was > 100 µM (inactive), the GI50 (CAKI-1) was > 100 µM (inactive) and the GI50 (MOLT-4) was > 100 µM (inactive). For the same compound, the GI50 (RXF 393) was > 100 µM (inactive), the GI50 (RPMI-8226) was > 100 µM (inactive) and the GI50 (SN12C) was > 100 µM (inactive). The GI50 (M19-MEL) was > 100 µM (inactive), the GI50 (786-0) was > 100 µM (inactive) and the GI50 (NCI-H522) was > 100 µM (inactive). The GI50 (HOP-92) was 90.8 µM (inactive), the GI50 (SF-268) was > 100 µM (inactive) and the GI50 (KM12) was > 100 µM (inactive). For the same compound, the GI50 (M14) was > 100 µM (inactive) and the GI50 (SK-MEL-2) was 32.4 µM (inactive).
